Laboratory results as given in publication PMC6364417, “Kinase inhibitor library screening identifies synergistic drug combinations effective in sensitive and resistant melanoma cells” (Journal of Experimental & Clinical Cancer Research : CR, 2019).
Like-named read-outs stand apart in the source and are kept apart here.

Tests used:
[1] = test system: A375 cells (parental); assay: Dose-response curves and IC50, PrestoBlue cell viability, 72 h; assay type: cell-based, human; conditions: read-out: Half-maximal inhibitory concentration value (IC50), Mean
[2] = test system: A375-XP cells (Vemurafenib-resistant); assay: as above; assay type: cell-based, human; conditions: n.e. = did not suppress growth below 50% in the tested concentration range; for IC50: read-out: Half-maximal inhibitory concentration value (IC50), Mean
[3] = test system: A375-GP cells (Dabrafenib-resistant); assay: as above; assay type: cell-based, human; conditions: n.e. = did not suppress growth below 50% in the tested concentration range; for IC50: read-out: Half-maximal inhibitory concentration value (IC50), Mean
[4] = test system: NHDF (normal human dermal fibroblasts); assay: Dose-response curves and IC50 in non-cancer cells, cell viability, 72 h; conditions: for effect on healthy cells, cell viability (in words): fibroblasts (NHDF)
Protocol: (§1) The IC50 values (nM) were calculated as indicated in Methods.

[5] = test system: NHEM (normal human epidermal melanocytes); assay: as above; conditions: for effect on healthy cells, cell viability (in words): melanocytes (NHEM)
Protocol: as §1

[6] = test system: A375 cells; assay: Synergy determination with the Chou-Talalay method (CompuSyn), cell viability 72 h; assay type: cell-based, human; conditions: 72 h cell viability, Chou-Talalay / Synergyfinder
[7] = test system: PARP cleavage; assay: Western blot, PARP cleavage in A375 cells; assay type: cell-based, human; conditions: A375, A375-XP, A375-GP; 24 h treatment
Protocol: Cells were seeded at a density of 10^5 cells/well in 24-well plates (Greiner). 24 h post seeding, cells were treated with inhibitors at indicated amounts for 3 h and/or 24 h. […] The following primary antibodies were used: anti-phospho-CHK1 (Ser317) (Cell Signalling Technology, 1:1000), anti-CHK1 (Cell Signalling Technology, 1:1000), anti-phospho-cdc2 (Tyr15) (Cell Signalling Technology, 1:1000), anti-cdc2 (Cell Signalling Technology, 1:1000), anti-PARP (Cell Signalling Technology, 1:1000), anti-cleaved-PARP (Cell Signalling Technology, 1:1000), anti-phospho-Erk (Tyr202/Tyr204) (Cell Signalling Technology, 1:2000), anti-Erk1/2 (Santa Cruz, Erk1 = 1:1000, Erk2 = 1:2000), anti-phospho-Akt (Ser473) (Cell Signalling Technology, 1:1500), anti-Akt1/2 (Santa Cruz, 1:1000), anti-Vinculin (Abcam, 1:1000) and anti-Tubulin (Santa Cruz, 1:5000). HRP-labeled secondary antibodies were purchased from Cell Signaling Technology (Boston, MA).

[8] = test system: A375 cells (parental sensitive) tumors; assay: In vivo assay, subcutaneous melanoma tumors in NSG mice; set-up: species or system NOD scid gamma (NSG) mice; conditions: NSG mice with A375 or A375-XP tumors, 8 days of daily treatment
Protocol: NOD scid gamma (NSG) mice were bred in-house and experiments were performed according to all applicable laws and regulations, after receiving approval by the institution’s animal experimentation ethics committee and the veterinarian service of the Ministry of Agriculture (Permit Number: 18-MDM-01). Single parental sensitive A375 cells (0.5 × 10^6 cells) and Vemurafenib-resistant A375-XP cells (2 × 10^6 cells) were resuspended in 100 μL of 1:1 mixed serum-free medium and matrigel (BD Biosciences) and injected subcutaneously in 6–8 week-old mice. […] Control mice received the respective vehicle by oral gavage and intraperitoneal injection. […] Statistical analysis was done using a two-way ANOVA followed by post-hoc Tukey’s multiple comparison tests.

[9] = test system: IGR37 cells (parental); assay: Dose-response curves and IC50, PrestoBlue cell viability, 72 h; conditions: Homo sapiens, IGR-37, 72 h, read-out: Half-maximal inhibitory concentration (IC50)
Protocol: (§4) All inhibitors used in this study were purchased from Selleck Chemicals (Houston, USA). They were dissolved in DMSO to a stock concentration of 10 mM according to the manufacturer’s instructions and stored at − 80 °C. […] Cell viability was measured with the PrestoBlue Cell Viability Reagent (ThermoFisher Scientific) on a CLARIOstar Monochromator microplate reader (BMG Labtech). Using the GraphPad Prism v5.04 software, the half-maximal inhibitor concentration values (IC50) were determined from the curve using the nonlinear log (inhibitor) vs response-variable slope (four parameters) equation. […] The IC50’s were determined for 3 biological replicates and are listed with their standard deviations.
(§5) Values represent the mean of at least three biological replicates; one representative curve of at least 3 biological replicates is depicted. _XP: cells resistant to Vemurafenib (red), _GP: cells resistant to Dabrafenib (green).

[10] = test system: IGR37-XP cells (Vemurafenib-resistant); assay: as above; conditions: Homo sapiens, 72 h, read-out: Half-maximal inhibitory concentration (IC50)
Protocol: as §4, §5

[11] = test system: IGR37-GP cells (Dabrafenib-resistant); assay: as above; conditions: Homo sapiens, 72 h, read-out: Half-maximal inhibitory concentration (IC50)
Protocol: as §4, §5

[12] = test system: 501Mel cells (parental); assay: as above; conditions: Homo sapiens, 72 h, read-out: Half-maximal inhibitory concentration (IC50)
Protocol: as §4, §5

[13] = test system: 501Mel-XP cells (Vemurafenib-resistant); assay: as above; conditions: Homo sapiens, 72 h, read-out: Half-maximal inhibitory concentration (IC50)
Protocol: as §4, §5

[14] = test system: 501Mel-GP cells (Dabrafenib-resistant); assay: as above; conditions: Homo sapiens, 72 h, read-out: Half-maximal inhibitory concentration (IC50)
Protocol: as §4

[15] = test system: 501Mel cells (parental); assay: Kinase inhibitor library screening, PrestoBlue cell viability, 1 or 10 μM, 72 h; conditions: 501Mel Parental, 72 h
How it was run: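 Values are % viability versus untreated wells, measured by PrestoBlue after a 72 h drug exposure. Screens covered the parental line plus sublines rendered resistant to Vemurafenib or Dabrafenib, each analysed in at least duplicate.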

[16] = test system: 501Mel-GP cells (Dabrafenib-resistant); assay: as above; conditions: 501Mel GP, 72 h
[17] = test system: 501Mel-XP cells (Vemurafenib-resistant); assay: as above; conditions: 501Mel XP, 72 h
[18] = test system: A375 cells (parental); assay: as above; conditions: A375 Parental, 72 h
[19] = test system: A375-GP cells (Dabrafenib-resistant); assay: as above; conditions: A375 GP, 72 h
[20] = test system: A375-XP cells (Vemurafenib-resistant); assay: as above; conditions: A375 XP, 72 h
[21] = test system: IGR37 cells (parental); assay: as above; conditions: IGR37 Parental, 72 h
[22] = test system: IGR37-GP cells (Dabrafenib-resistant); assay: as above; conditions: IGR37 GP, 72 h
[23] = test system: IGR37-XP cells (Vemurafenib-resistant); assay: as above; conditions: IGR37 XP, 72 h
[24] = test system: A375 parental cells expressing iRFP; assay: Long-term inhibitor treatment, iRFP fluorescence proliferation monitoring; assay type: cell-based, human
Protocol: A375 parental and BRAFi-resistant cells, virally transduced with the near-infrared fluorescent protein (iRFP) were seeded at a density of 2500 cells/well in a 24-well plate (Greiner) in at least technical triplicates. Inhibitors, single or in combination, were added at the indicated amounts and replenished every 72 h for a duration of 76 days. To assess whether any remaining cells have become resistant to the treatment and would re-emerge, the drugs were removed and the cells underwent “drug holidays” for an additional 21 days. During the long-term treatment, cell proliferation was monitored bi-weekly on a LI-COR Odyssey Infrared Imaging System (LI-COR Biosciences). Fluorescence intensity was quantified with the Image Studio™ Lite software (LI-COR Biosciences).

[25] = test system: P-Akt levels; assay: Western blot, phospho-Akt; assay type: cell-based, human; conditions: A375 cells, 3 h treatment
Protocol: (§2) Cells were seeded at a density of 10^5 cells/well in 24-well plates (Greiner). 24 h post seeding, cells were treated with inhibitors at indicated amounts for 3 h and/or 24 h. Western blot analysis was performed as described before. The following primary antibodies were used: anti-phospho-CHK1 (Ser317) (Cell Signalling Technology, 1:1000), anti-CHK1 (Cell Signalling Technology, 1:1000), anti-phospho-cdc2 (Tyr15) (Cell Signalling Technology, 1:1000), anti-cdc2 (Cell Signalling Technology, 1:1000), anti-PARP (Cell Signalling Technology, 1:1000), anti-cleaved-PARP (Cell Signalling Technology, 1:1000), anti-phospho-Erk ([…]) (Cell Signalling Technology, 1:2000), anti-Erk1/2 (Santa Cruz, Erk1 = 1:1000, Erk2 = 1:2000), anti-phospho-Akt (Ser473) (Cell Signalling Technology, 1:1500), anti-Akt1/2 (Santa Cruz, 1:1000), anti-Vinculin (Abcam, 1:1000) and anti-Tubulin (Santa Cruz, 1:5000). HRP-labeled secondary antibodies were purchased from Cell Signaling Technology (Boston, MA).
(§3) Supplementary file 13046_2019_1038_MOESM6_ESM.pdf: Additional file 6: Figure S4. Western blot analysis for selected drug treatments and apoptosis assays in healthy and melanoma cells. […] Cells were treated for 3 h with indicated concentrations of inhibitors. […] P-cdc2 (CDK1), cdc2 (CDK1), p-Chk1 and Chk1 were detected after 3 h drug treatment, while PARP cleavage was detected after 24 h treatment. […]

[26] = test system: Erk phosphorylation; assay: Western blot, phospho-Erk; assay type: cell-based, human; conditions: A375 cells, 3 h treatment
Protocol: as §2, §3

[27] = Homo sapiens, A-375, n.e. = did not suppress growth below 50% in the tested concentration range
[28] = n.e. = did not suppress growth below 50% in the tested concentration range

## NC(=O)Nc1cc(-c2cccc(F)c2)sc1C(=O)N[C@H]1CCCNC1 [AZD7762]
[1]; [27]
  IC50: 311 nM
[2]; Homo sapiens
  IC50: 366 nM
[3]; Homo sapiens
  IC50: 299 nM
[4]; Homo sapiens, NHDF, read-out: Half-maximal inhibitory concentration (IC50), NHDF Mean
  IC50: 532 nM
[4]
  effect on healthy cells, cell viability (in words): very modest effects
[5]; Homo sapiens, Melanocyte, read-out: Half-maximal inhibitory concentration (IC50), NHEM Mean
  IC50: 358 nM
[5]
  effect on healthy cells, cell viability (in words): very modest effects
[6]
  synergistic effects with the BRAF inhibitors Vemurafenib and/or Dabrafenib (in words): clear synergistic effects
[7]
  Cleavage of PARP (in words): induced
[8]
  body weight and side effects during treatment (in words): did not lose weight
[9]
  IC50: 65 nM
[10]
  IC50: 58 nM
[11]
  IC50: 70 nM
[12]
  IC50: 306 nM
[13]
  IC50: 188 nM
[14]
  IC50: 426 nM

## O=c1[nH]c2ccc(Cl)cc2c(N[C@@H]2CN3CCC2CC3)c1-c1nc2ccccc2[nH]1 [CHIR-124, reference compound]
[15]; 1μΜ
  cell viability (kinase inhibitor library screening): 47.8%
[15]; 10μΜ
  cell viability (kinase inhibitor library screening): 0.9%
[16]; 1μΜ
  cell viability (kinase inhibitor library screening): 40.5%
[16]; 10μΜ
  cell viability (kinase inhibitor library screening): 0.146%
[17]; 1μΜ
  cell viability (kinase inhibitor library screening): 26.0%
[17]; 10μΜ
  cell viability (kinase inhibitor library screening): 0.156%
[18]; 10μΜ
  cell viability (kinase inhibitor library screening): 2.4%
[18]; 1μΜ
  cell viability (kinase inhibitor library screening): 23.5%
[19]; 1μΜ
  cell viability (kinase inhibitor library screening): 18.2%
[19]; 10μΜ
  cell viability (kinase inhibitor library screening): 1.5%
[20]; 1μΜ
  cell viability (kinase inhibitor library screening): 40.8%
[20]; 10μΜ
  cell viability (kinase inhibitor library screening): 1.5%
[21]; 1μΜ
  cell viability (kinase inhibitor library screening): 57.6%
[21]; 10μΜ
  cell viability (kinase inhibitor library screening): 1.0%
[22]; 1μΜ
  cell viability (kinase inhibitor library screening): 91.0%
[22]; 10μΜ
  cell viability (kinase inhibitor library screening): 2.3%
[23]; 1μΜ
  cell viability (kinase inhibitor library screening): 63.5%
[23]; 10μΜ
  cell viability (kinase inhibitor library screening): 1.6%
[1]; [28]
  IC50: 233 nM
[2]
  IC50: 321 nM
[3]
  IC50: 278 nM
[6]
  synergistic effects with the BRAF inhibitors Vemurafenib and/or Dabrafenib (in words): synergistic effects only with Dabrafenib
[24]; 150 nM, even with Dabrafenib (data not shown)
  long-term cell growth under drug until day 76 (in words): not sufficient to prevent cells to grow back
[24]; 300 nM single treatment
  long-term cell growth under drug until day 76 (in words): killed most of the cells

## CNC(=O)c1ccccc1Nc1nc(Nc2ccc(N3CCOCC3)cc2OC)ncc1Cl [TAE226]
[1]; [28]
  IC50: 489 nM
[2]
  IC50: 176 nM
[3]
  IC50: 301 nM
[6]
  synergistic effects with the BRAF inhibitors Vemurafenib and/or Dabrafenib (in words): Vemurafenib showed synergism
[25]
  P-Akt levels (in words): blocking P-Akt levels

## CCCS(=O)(=O)Nc1ccc(F)c(C(=O)c2c[nH]c3ncc(-c4ccc(Cl)cc4)cc23)c1F [Vemurafenib]
[1]; [27]
  IC50: 135 nM
[2]
  Half-maximal inhibitory concentration value (IC50), Mean: n.e.
[3]
  Half-maximal inhibitory concentration value (IC50), Mean: n.e.
[4]
  effect on healthy cells, cell viability (in words): did not have any effect
[5]
  effect on healthy cells, cell viability (in words): did not have any effect
[26]
  Erk phosphorylation (in words): inhibition of Erk phosphorylation by Vemurafenib was confirmed
